Test results reported in ChEMBL document CHEMBL3885881, “DrugMatrix”.

Species: Rattus norvegicus
Assay: DrugMatrix - Regimen: Daily Repeat
Type: toxicity, organism-based, Sprague-Dawley
Set-up: regimen Daily Repeat, gender Male, age 6-8 weeks
Conditions: in vivo, po, route oral GAVAGE, vehicle .5 % CMC; for ABSOLUTE BASOPHIL / ABSOLUTE EOSINOPHIL / ABSOLUTE LYMPHOCYTE / ABSOLUTE MONOCYTE / ABSOLUTE SEGMENTED NEUTROPHIL / BASOPHIL / EOSINOPHIL / ERYTHROCYTE COUNT / HEMATOCRIT / HEMOGLOBIN / LEUKOCYTE COUNT / LYMPHOCYTE / MEAN CORPUSCULAR HEMOGLOBIN / MEAN CORPUSCULAR HEMOGLOBIN CONCENTRATION / MEAN CORPUSCULAR VOLUME / MONOCYTE / NEUTROPHIL / NUCLEATED RED BLOOD CELLS / PLATELET COUNT: tissue Blood; for ALANINE AMINOTRANSFERASE / ALBUMIN / ALKALINE PHOSPHATASE / ASPARTATE AMINOTRANSFERASE / BLOOD UREA NITROGEN / CARBON DIOXIDE / CHLORIDE / CHOLESTEROL / CREATINE PHOSPHOKINASE / CREATININE / GLUCOSE / LACTATE DEHYDROGENASE / LIPASE / PHOSPHORUS / POTASSIUM / SODIUM / TOTAL BILIRUBIN / TOTAL PROTEIN / URIC ACID: tissue Plasma
[1] = 2 mg/kg, 72 h, dose level Low, time 3 day
[2] = 2 mg/kg, 120 h, dose level Low, time 5 day
[3] = 83 mg/kg, 72 h, dose level High, time 3 day
[4] = 83 mg/kg, 120 h, dose level High, time 5 day

Nc1cc(N2CCCCC2)nc(N)[n+]1[O-] [MINOXIDIL]
ABSOLUTE BASOPHIL [1]: 0 CELLS/uL | ABSOLUTE EOSINOPHIL [1]: 0 CELLS/uL | ABSOLUTE LYMPHOCYTE [1]: 9089 CELLS/uL | ABSOLUTE MONOCYTE [1]: 42.33 CELLS/uL | ABSOLUTE SEGMENTED NEUTROPHIL [1]: 735.33 CELLS/uL | BASOPHIL [1]: 0% | EOSINOPHIL [1]: 0% | ERYTHROCYTE COUNT [1]: 4.78 x10E6/uL | HEMATOCRIT [1]: 30.6% | HEMOGLOBIN [1]: 12.57 G/DL | LEUKOCYTE COUNT [1]: 9.87 x10E3/uL | LYMPHOCYTE [1]: 92% | MEAN CORPUSCULAR HEMOGLOBIN [1]: 26.3 pg | MEAN CORPUSCULAR HEMOGLOBIN CONCENTRATION [1]: 41.1 G/DL | MEAN CORPUSCULAR VOLUME [1]: 64.07 fL | MONOCYTE [1]: 0.33% | NEUTROPHIL [1]: 7.67% | NUCLEATED RED BLOOD CELLS [1]: 0 /100WBC | PLATELET COUNT [1]: 1041 x10E3/uL | ALANINE AMINOTRANSFERASE [1]: 50.33 u/L | ALBUMIN [1]: 4.3 G/DL | ALKALINE PHOSPHATASE [1]: 415 u/L | ASPARTATE AMINOTRANSFERASE [1]: 94.33 u/L | BLOOD UREA NITROGEN [1]: 18 mg/dL | CARBON DIOXIDE [1]: 35.33 mmol/L | CHLORIDE [1]: 100.67 MEQ/L | CHOLESTEROL [1]: 74.67 mg/dL | CREATINE PHOSPHOKINASE [1]: 368.67 u/L | CREATININE [1]: 0.23 mg/dL | GLUCOSE [1]: 127.67 mg/dL | LACTATE DEHYDROGENASE [1]: 159 u/L | LIPASE [1]: 10 u/L | PHOSPHORUS [1]: 11.3 mg/dL | POTASSIUM [1]: 6.23 MEQ/L | SODIUM [1]: 147.5 MEQ/L | TOTAL BILIRUBIN [1]: 0.1 mg/dL | TOTAL PROTEIN [1]: 6.03 G/DL | URIC ACID [1]: 0.93 mg/dL | ABSOLUTE BASOPHIL [2]: 0 CELLS/uL | ABSOLUTE EOSINOPHIL [2]: 0 CELLS/uL | ABSOLUTE LYMPHOCYTE [2]: 14468 CELLS/uL | ABSOLUTE MONOCYTE [2]: 213.67 CELLS/uL | ABSOLUTE SEGMENTED NEUTROPHIL [2]: 818.33 CELLS/uL | BASOPHIL [2]: 0% | EOSINOPHIL [2]: 0% | ERYTHROCYTE COUNT [2]: 5.34 x10E6/uL | HEMATOCRIT [2]: 33.6% | HEMOGLOBIN [2]: 13.27 G/DL | LEUKOCYTE COUNT [2]: 15.5 x10E3/uL | LYMPHOCYTE [2]: 93.33% | MEAN CORPUSCULAR HEMOGLOBIN [2]: 24.8 pg | MEAN CORPUSCULAR HEMOGLOBIN CONCENTRATION [2]: 39.47 G/DL | MEAN CORPUSCULAR VOLUME [2]: 62.9 fL | MONOCYTE [2]: 1.33% | NEUTROPHIL [2]: 5.33% | NUCLEATED RED BLOOD CELLS [2]: 0 /100WBC | PLATELET COUNT [2]: 1308.33 x10E3/uL | ALANINE AMINOTRANSFERASE [2]: 52 u/L | ALBUMIN [2]: 4.33 G/DL | ALKALINE PHOSPHATASE [2]: 362.67 u/L | ASPARTATE AMINOTRANSFERASE [2]: 78.67 u/L | BLOOD UREA NITROGEN [2]: 18 mg/dL | CARBON DIOXIDE [2]: 33 mmol/L | CHLORIDE [2]: 102 MEQ/L | CHOLESTEROL [2]: 75.33 mg/dL | CREATINE PHOSPHOKINASE [2]: 156.33 u/L | CREATININE [2]: 0.2 mg/dL | GLUCOSE [2]: 153 mg/dL | LACTATE DEHYDROGENASE [2]: 135.67 u/L | LIPASE [2]: 8.67 u/L | PHOSPHORUS [2]: 14.1 mg/dL | POTASSIUM [2]: 6.87 MEQ/L | SODIUM [2]: 146.73 MEQ/L | TOTAL BILIRUBIN [2]: 0.27 mg/dL | TOTAL PROTEIN [2]: 6.27 G/DL | URIC ACID [2]: 1.43 mg/dL | ABSOLUTE BASOPHIL [3]: 0 CELLS/uL | ABSOLUTE EOSINOPHIL [3]: 0 CELLS/uL | ABSOLUTE LYMPHOCYTE [3]: 11593 CELLS/uL | ABSOLUTE MONOCYTE [3]: 0 CELLS/uL | ABSOLUTE SEGMENTED NEUTROPHIL [3]: 1707 CELLS/uL | BASOPHIL [3]: 0% | EOSINOPHIL [3]: 0% | ERYTHROCYTE COUNT [3]: 4.83 x10E6/uL | HEMATOCRIT [3]: 30.37% | HEMOGLOBIN [3]: 12.7 G/DL | LEUKOCYTE COUNT [3]: 13.3 x10E3/uL | LYMPHOCYTE [3]: 87.67% | MEAN CORPUSCULAR HEMOGLOBIN [3]: 26.3 pg | MEAN CORPUSCULAR HEMOGLOBIN CONCENTRATION [3]: 41.83 G/DL | MEAN CORPUSCULAR VOLUME [3]: 62.8 fL | MONOCYTE [3]: 0% | NEUTROPHIL [3]: 12.33% | NUCLEATED RED BLOOD CELLS [3]: 0 /100WBC | PLATELET COUNT [3]: 1119.33 x10E3/uL | ALANINE AMINOTRANSFERASE [3]: 40.33 u/L | ALBUMIN [3]: 4.27 G/DL | ALKALINE PHOSPHATASE [3]: 346.33 u/L | ASPARTATE AMINOTRANSFERASE [3]: 73.67 u/L | BLOOD UREA NITROGEN [3]: 18.33 mg/dL | CARBON DIOXIDE [3]: 30.33 mmol/L | CHLORIDE [3]: 103.33 MEQ/L | CHOLESTEROL [3]: 70.33 mg/dL | CREATINE PHOSPHOKINASE [3]: 164 u/L | CREATININE [3]: 0.15 mg/dL | GLUCOSE [3]: 140 mg/dL | LACTATE DEHYDROGENASE [3]: 144 u/L | LIPASE [3]: 9.33 u/L | PHOSPHORUS [3]: 12.47 mg/dL | POTASSIUM [3]: 6.31 MEQ/L | SODIUM [3]: 145.1 MEQ/L | TOTAL BILIRUBIN [3]: 0.17 mg/dL | TOTAL PROTEIN [3]: 5.67 G/DL | URIC ACID [3]: 1.33 mg/dL | ABSOLUTE BASOPHIL [4]: 0 CELLS/uL | ABSOLUTE EOSINOPHIL [4]: 0 CELLS/uL | ABSOLUTE LYMPHOCYTE [4]: 12306 CELLS/uL | ABSOLUTE MONOCYTE [4]: 270 CELLS/uL | ABSOLUTE SEGMENTED NEUTROPHIL [4]: 990.67 CELLS/uL | BASOPHIL [4]: 0% | EOSINOPHIL [4]: 0% | ERYTHROCYTE COUNT [4]: 5.12 x10E6/uL | HEMATOCRIT [4]: 32.97% | HEMOGLOBIN [4]: 13.17 G/DL | LEUKOCYTE COUNT [4]: 13.57 x10E3/uL | LYMPHOCYTE [4]: 90.67% | MEAN CORPUSCULAR HEMOGLOBIN [4]: 25.77 pg | MEAN CORPUSCULAR HEMOGLOBIN CONCENTRATION [4]: 39.93 G/DL | MEAN CORPUSCULAR VOLUME [4]: 64.53 fL | MONOCYTE [4]: 2% | NEUTROPHIL [4]: 7.33% | NUCLEATED RED BLOOD CELLS [4]: 0.33 /100WBC | PLATELET COUNT [4]: 1460 x10E3/uL | ALANINE AMINOTRANSFERASE [4]: 52.33 u/L | ALBUMIN [4]: 4.33 G/DL | ALKALINE PHOSPHATASE [4]: 352.67 u/L | ASPARTATE AMINOTRANSFERASE [4]: 78.67 u/L | BLOOD UREA NITROGEN [4]: 18 mg/dL | CARBON DIOXIDE [4]: 34.67 mmol/L | CHLORIDE [4]: 100.67 MEQ/L | CHOLESTEROL [4]: 77.33 mg/dL | CREATINE PHOSPHOKINASE [4]: 322.67 u/L | CREATININE [4]: 0.29 mg/dL | GLUCOSE [4]: 137 mg/dL | LACTATE DEHYDROGENASE [4]: 304 u/L | LIPASE [4]: 11 u/L | PHOSPHORUS [4]: 11.17 mg/dL | POTASSIUM [4]: 6.32 MEQ/L | SODIUM [4]: 143.43 MEQ/L | TOTAL BILIRUBIN [4]: 0.23 mg/dL | TOTAL PROTEIN [4]: 5.9 G/DL | URIC ACID [4]: 1.43 mg/dL
